Eight molecules from ChEMBL document CHEMBL1201862, “PubChem BioAssay data set” (2004) can be followed below.

Each structure is given as a SMILES string.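 Briefly, cells in 96-well plates were exposed to five compound concentrations for 48 h, and endpoints were estimated by linear interpolation. GI50 is the concentration that inhibits growth by half.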 Activity calls are given as the source filed them. Cut-off read from the data, not from the text of the source: active = GI50 up to about 1.1 µM and inactive = higher.

Among the test systems are U-251; SN12C; XF498; HCT-15; HL-60; OVCAR-5; OVCAR-3; UO-31; SK-MEL-2; HCT-116; UACC-257; KM-20L2; KM12; K562; SK-MEL-5; HOP-92; OVCAR-4; SW-620; MOLT-4; NCI/ADR-RES.
What all share (experiment): inhibition of tumour cell growth, NCI panel, 48 h

As for `Cc1nc2c(c(=O)[nH]1)S/C(=C(/C#N)c1nc3ccccc3[nH]1)N2c1ccccc1`, the GI50 with U-251 was > 100 µM (inactive); with SN12C it was > 100 µM (inactive); in the assay on XF498, > 100 µM (inactive); in the assay on HCT-15, greater than 100 µM; in the assay on HL-60 it was > 100 µM (inactive); with OVCAR-5, > 100 µM (inactive). Besides, the GI50 with OVCAR-3, in the assay on UO-31, with SK-MEL-2, in the assay with HCT-116, with UACC-257 and in the assay with KM-20L2 was > 100 µM (inactive) in each case. In addition, the GI50 with KM12, in the assay with K562, in the assay on SK-MEL-5, with HOP-92, with OVCAR-4 and with SW-620 was > 100 µM (inactive) throughout. The GI50 in the assay on MOLT-4 was > 100 µM (inactive).
In the case of `O=C(CCl)NNC1=Nc2ccc(Cl)cc2SC1`, the GI50 is 2.15 µM (inactive) in the assay with U-251; 1.8 µM (inactive) in the assay with NCI/ADR-RES; 1.95 µM (inactive) in the assay on SN12C; 1.85 µM (inactive) with XF498; 1.81 µM in the assay with HCT-15; 1.55 µM (inactive) in the assay on HL-60. Also, the GI50 in the assay with OVCAR-5 was 2.26 µM (inactive); with OVCAR-3 it was 1.78 µM (inactive); with UO-31, 1.86 µM (inactive); in the assay with SK-MEL-2 it was 3.66 µM (inactive); in the assay with HCT-116, 1.64 µM (inactive); with UACC-257, 3.23 µM (inactive). For the same molecule, the GI50 was 4.3 µM (inactive) in the assay on KM-20L2; 5.02 µM (inactive) in the assay with KM12; 1.87 µM (inactive) in the assay with K562; 2.36 µM (inactive) in the assay with SK-MEL-5; 1.63 µM (inactive) with HOP-92; 2.12 µM (inactive) with OVCAR-4. Besides, the GI50 in the assay on SW-620 was 2.04 µM (inactive); in the assay with MOLT-4 it was 1.12 µM (active).
Take `CN(C(=O)c1ccccc1)c1ccc2c(c1)C(=O)c1ccccc1C2=O`: the GI50 in the assay on U-251 was > 100 µM (inactive); with SN12C, > 100 µM (inactive); in the assay on XF498, > 100 µM (inactive); with HCT-15 it was greater than 100 µM; in the assay with OVCAR-5, > 100 µM (inactive); in the assay on OVCAR-3, > 100 µM (inactive). Also, the GI50 with UO-31, with SK-MEL-2, in the assay with HCT-116, in the assay with UACC-257, with KM-20L2 and in the assay on KM12 was > 100 µM (inactive) in each case. Besides, the GI50 in the assay with K562, in the assay with HOP-92, in the assay with OVCAR-4, in the assay with SW-620 and in the assay on MOLT-4 was > 100 µM (inactive) each time.
Take `CSc1nc2c(ncn2C2OCC(O)C(O)C2O)c(=O)[nH]1` (centres undefined): the GI50 is > 100 µM (inactive) with U-251; > 100 µM (inactive) in the assay on NCI/ADR-RES; > 100 µM (inactive) in the assay on SN12C; > 100 µM (inactive) with XF498; greater than 100 µM in the assay on HCT-15; > 100 µM (inactive) in the assay on HL-60. Also, the GI50 with OVCAR-5, in the assay with OVCAR-3, in the assay with UO-31, in the assay with SK-MEL-2, with HCT-116 and in the assay on UACC-257 was > 100 µM (inactive) in each case. Besides, the GI50 with KM-20L2, with KM12, in the assay with K562, in the assay on SK-MEL-5, in the assay on HOP-92 and with OVCAR-4 was > 100 µM (inactive) in each case. Also, the GI50 with SW-620 and in the assay with MOLT-4 was > 100 µM (inactive) throughout.
As for `CN/N=C(\C(=O)Nc1ccc(C)c(C)c1)C(C(=O)OC)c1nc2ccc([N+](=O)[O-])cc2nc1O` (centres undefined), the GI50 in the assay on U-251 is > 100 µM (inactive); in the assay on SN12C, > 100 µM (inactive); with XF498, > 100 µM (inactive); in the assay with HCT-15, 85.1 µM; in the assay with HL-60 it was 50.9 µM (inactive); in the assay with OVCAR-5, > 100 µM (inactive). Further, the GI50 in the assay on UO-31 is > 100 µM (inactive); in the assay on SK-MEL-2, > 100 µM (inactive); in the assay with HCT-116 it was > 100 µM (inactive); in the assay with UACC-257, > 100 µM (inactive); in the assay with KM-20L2 it was > 100 µM (inactive); in the assay with KM12, 94.4 µM (inactive). The GI50 in the assay on K562, in the assay on SK-MEL-5, in the assay with HOP-92, in the assay on OVCAR-4, with SW-620 and in the assay on MOLT-4 was > 100 µM (inactive) in each case.
In the case of `CCCCCn1cc2c3c(cccc31)C1C=C(C)CN(C)[C@@H]1C2.Cc1ccc(C(=O)OC(C(=O)O)C(OC(=O)c2ccc(C)cc2)C(=O)O)cc1` (centres undefined), the GI50 was 7.13 µM (inactive) in the assay with U-251; 6.17 µM (inactive) in the assay with NCI/ADR-RES; 13 µM (inactive) in the assay with SN12C; 2.67 µM (inactive) in the assay on XF498; 4.58 µM with HCT-15; 1.35 µM (inactive) in the assay on HL-60. Moreover, the GI50 was 9.89 µM (inactive) in the assay with OVCAR-5; 6.75 µM (inactive) in the assay on OVCAR-3; 3.86 µM (inactive) in the assay on UO-31; 9.18 µM (inactive) in the assay on SK-MEL-2; 4.04 µM (inactive) in the assay with HCT-116; 4.21 µM (inactive) in the assay on UACC-257. The GI50 with KM-20L2 is 3.83 µM (inactive); in the assay with KM12, 5.92 µM (inactive); in the assay with K562, 2.51 µM (inactive); with SK-MEL-5, 3.06 µM (inactive); in the assay with HOP-92, 1.6 µM (inactive); in the assay on OVCAR-4 it was 5.96 µM (inactive). For the same molecule, the GI50 was 4.16 µM (inactive) with SW-620 and 4.24 µM (inactive) in the assay on MOLT-4.
Consider `O=C1OC2(CC1C1(O)C3CC4CC(C3)CC1C4)C1CC3CC(C1)CC2C3` (centres undefined), for which the GI50 in the assay on SN12C is 65.3 µM (inactive); in the assay with XF498, 9.77 µM (inactive); in the assay with HCT-15, greater than 100 µM; with HL-60, > 100 µM (inactive); in the assay with OVCAR-3 it was 44.6 µM (inactive); in the assay on UO-31, > 100 µM (inactive). The GI50 in the assay with SK-MEL-2 was > 100 µM (inactive); in the assay on HCT-116, 49.7 µM (inactive); with UACC-257, > 100 µM (inactive); with KM12, > 100 µM (inactive); with K562, > 100 µM (inactive); with SK-MEL-5 it was 38.3 µM (inactive). Moreover, the results for the GI50 in the assay on OVCAR-4, in the assay on SW-620 and in the assay with MOLT-4 were 22.1 µM (inactive), 65.9 µM (inactive) and > 100 µM (inactive), respectively.
Consider `N#C/C(=C\c1ccncc1)c1csc2ccccc12`, for which the GI50 was 23.5 µM (inactive) in the assay on U-251; 22.1 µM (inactive) in the assay on NCI/ADR-RES; 23.6 µM (inactive) in the assay on SN12C; 22.3 µM (inactive) in the assay on XF498; 24 µM in the assay with HCT-15; 15.1 µM (inactive) with HL-60. In addition, the GI50 was 42.3 µM (inactive) in the assay with OVCAR-5; 21.3 µM (inactive) in the assay with OVCAR-3; 24.9 µM (inactive) in the assay on UO-31; 17.2 µM (inactive) in the assay with SK-MEL-2; 16.6 µM (inactive) in the assay with HCT-116; 23.7 µM (inactive) in the assay with UACC-257. In addition, the GI50 with KM-20L2 was 20 µM (inactive); in the assay on KM12, 18.5 µM (inactive); with K562, 20.2 µM (inactive); in the assay on SK-MEL-5, 16.8 µM (inactive); in the assay on HOP-92, 20.9 µM (inactive); with OVCAR-4, 26.2 µM (inactive). Also, the GI50 in the assay with SW-620 is 26.5 µM (inactive); in the assay on MOLT-4, 15.5 µM (inactive).
